System: affected regions of atopic patients
Test: itch and area of inflammation after 1 week of application in atopic patients
Assay type: in vivo, human
Settings: number of 3 atopic patients; daily application for 1 week
Protocol: The dermatologic preparations of Examples 1 to 3 and the dermatologic preparations for comparison of Reference Examples 1 to 3 were evaluated for itch and the area of inflammation 1 week after application.
To the affected regions of 3 atopic patients (1 adult, 1 adult, and 1 child), was applied an adequate amount of each oil produced in Examples 1 to 3 and Reference Examples 1 to 3 after bathing every day. After application for 1 week, itch and the inflammatory area were evaluated. During the treatment period, the drugs used previously were continued. In the child who could not describe itch, itch was evaluated based on the behavior of scratching at the affected region.

Substance: 1,3-dioctanoyl-2-eicosapentaenoyl glycerol [Example 2]
- inflammatory area: no change: 0 patients
- inflammatory area: reduced: 3 patients
- inflammatory area: widened: 0 patients
- itch: improved: 3 patients
- itch: no change: 0 patients
- itch: worsened: 0 patients
